Reference: patent publication US6967102B1, “Nitric oxide manipulation of muscle satellite cell activation” (University of Manitoba, priority 1999, dated 2005)
Entries after “also recorded” stand apart in the source; their conditions may differ.

Columns and labels:
dystrophic muscle = test: Central nucleation index (CNI) in LTA and diaphragm of treated mdx mice; type: in vivo; details: mdx mice treated from 4–8 weeks of age; for CNI (central nucleation index) in DIA: diaphragm; for CNI (central nucleation index) in LTA: left tibialis anterior
Text: A study of 4 groups (n≈10/group) of mdx dystrophic mice treated with placebo, deflazacort, deflazacort plus L-NAME (a NOS inhibitor), or deflazacort plus L-arginine (a […]). Deflazacort was given by daily injection (ip) and L-NAME and L-arginine were given systemically in the drinking water.
When a normal peripherally nucleated myofiber degenerates, muscle precursor cells proliferate to varying extents (Grounds Md., McGeachie J K. (1989). Exp. Cell Res 180:429–439) and fuse to form centrally nucleated myotubes. These myotubes grow, or even hypertrophy compared to the original distribution of fiber size in that muscle, and span the injured area, (Anderson J E, Ovalle W K, Bressler B H. (1987). Anat. Rec. 219:243–257; Anderson J E, Bressler B H, Ovalle W K. (1988). J. Muscle Res. Cell Motil. 9:499–515; Ontell M, Feng K C, Klueber K, Dunn R F, Taylor F. (1984). Anat. Rec. 208:159 174) but remain centrally nucleated; thus the central nucleation index (CNI) is a useful measure of accumulated damage and repair. (Karpati G, Carpenter S. (1988). Muscle Nerve. 11:795–803). The CNI is a measurement well known in the art (see Karpati and Carpenter. 1988. Muscle Nerve. 11:795–803 and Anderson et al. 1996. Muscle Nerve. 19:1576–1585).
CNI is the proportion of all fibers in a section or a muscle which show a centrally-located nucleus (often given as a percentage). Since muscular dystrophy causes ongoing damage of muscle fibers, the successful repair of those fibers is marked by centrally-nucleated fibers which accumulate as a proportion of total fibers. Unsuccessful repair can be viewed as a loss of fibers in a section of a whole muscle; this too can produce a change in the ratio of centrally nucleated to total number of fibers (expressed as a percentage).
In this experiment, muscle tissues are collected from the treated animals. LTA and diaphragm muscles were sectioned, and counts of fibers with central nuclei and fibers with peripheral nuclei were performed. The largest diameter of the muscle section in each of the two sections of each muscle was used for counting, for 10 mice per group (2 muscles per mouse).
This is similar for the tibialis anterior muscle (LTA) and diaphragm at the age shown in the graph (which is 8 weeks of age) and is reliably used to monitor the progressive effect of dystrophic fiber injury on a muscle over time as the disease progresses. CNI will increase with age in the mdx mice (until the plateau discussed above). Mice are treated from 4–8 weeks of age with placebo, Deflazacort, D+L-NAME or D+L-Arginine.

muscle fibers = test: Marcaine / ethidium bromide staining and hypercontraction of isolated muscle fibers; type: cell-based, C57 mice
Text: (§1) Flexor digitorum brevis (FDB) muscles from normal C57 mice were dissected from the foot, and connective tissue, vessels and nerves were cleaned off the muscle. Following a 3 hr collagenase digestion (0.2% in DMEM), and viewed on a dissecting microscope, the muscle was separated into three bundles and the overlying connective tissue was peeled off the bundles using sharp forceps. The individual fibers were then teased off the remnant tendon and into smaller bundles. Bundles were gently triturated to separate single fibers using a wide mouth glass pipette with a polished end. The fibers were plated onto vitrogen-coated 35 mm dishes and grown in 1.5 ml of DMEM+10% Horse Serum (HS)+1% antimyotics+0.1% gentamycin.
Marcaine, an anaesthetic, was previously used to kill live fibers by adding it to a dish for 20–30 minutes (Cornelison, D. D. W., and Wold, B. J. (1997). Dev. Biol. 191:270–283) but the exact time of fiber death was never identified. Ethidium bromide (EtBr) is a fluorescent chemical which intercalates into the DNA of dead cells but is not taken up into live fibers. Media was mostly decanted from freshly plated fibers and the fibers were located using a microscope. 2–3 drops of either EtBr (2.5 μg/ml) in DMEM or Marcaine (0.05%)+EtBr (2.5 μg/ml) in DMEM were then added to the dish under continuous observation. Fiber hypercontraction was observed using a phase lens and the time course of EtBr nuclear staining was observed under UV light using a red filter. Photographs (ASA400 Fuji Colour Film) were taken to record staining of live, fixed, EtBr and Marcaine treated fibers and nuclei.

muscle precursor cells = details: deflazacort treatment on mdx mice; cited from earlier work
satellite cells [1] = test: Cell yield time course 0–30 min after crush injury of right tibialis anterior, normal mice; type: in vivo, normal mice (C57BL/6); details: L-Arg 225 mg/kg ip 30 min before crush; 0–30 min
[2] = Muscle weight to body weight (edema) and haemorrhage after crush injury, normal mice; type: in vivo, normal mice (C57BL/6); details: ip treatment 30 min before crush; 0–30 min after injury
satellite cells [3] = test: Isolated single muscle fiber culture, BrdU incorporation by satellite cells (activation); type: cell-based, C57 mice
Text: as §1
Live fibers exclude Ethidium bromide (EtBr), but 5 minutes after adding a myotoxin called marcaine (Bischoff R. (1990b). Development 109:943–952) to the medium, nuclei in fibers (and not in satellite cells) are fluorescent for EtBr. Hypercontraction occurs another 5–10 min later. Satellite cells exclude EtBr but take up an indicator of live cells, fluoresceine diacetate (FDA). Without this characterization, observations on satellite cells in a culture could include artefacts from membrane damage that initiates activation differently than any treatment under study. Satellite cells on our intact fibers were also quiescent after isolation. […] This conclusion is critical to any studies that propose to examine activation signals and their regulation.
Experimental Protocol: Fibers are isolated from flexor digitorum brevis (FDB) muscles on the plantar foot of 3 mice, then digested in collagenase (0.2% for 3 hr) and separated under a stereo microscope into small bundles (Yablonka-Reuveni, Z. and Rivera AJ. (1994). Dev. Biol. 164:588–603). […]
Fibers are incubated in 20% serum replacement medium (CSR; Yablonka-Reuveni, Z, and Rivera A J. (1994). Dev. Biol. 164:588–603). […] Activation is measured by counting labelled satellite cells per fiber (150–250 fibers/dish). […]

[4] = Marcaine (0.05%)+EtBr (2.5 μg/ml) in DMEM

D+L-Arginine
CNI (central nucleation index) in DIA (dystrophic muscle): decrease the CNI of DIA from the level seen with D+L-NAME | CNI (central nucleation index) in LTA (dystrophic muscle): increase in LTA CNI from deflazacort alone; also recorded: still significantly lower than placebo treatment

CCCCN1CCCCC1C(=O)Nc1c(C)cccc1C (stereo not drawn) [Marcaine]
time to EtBr staining of nuclei of live fibers after Marcaine (muscle fibers; [4]): 60 to 90 s | time to fiber hypercontraction (muscle fibers; [4]): 5 to 10 min | further time until hypercontraction after nuclei fluoresce (muscle fibers; marcaine added to the medium): 5 to 10 min | time after adding marcaine at which nuclei in fibers are fluorescent for EtBr (muscle fibers; marcaine added to the medium): 5 min

CC(=O)OCC(=O)[C@@]12N=C(C)O[C@@H]1C[C@H]1[C@@H]3CCC4=CC(=O)C=C[C@]4(C)[C@H]3[C@@H](O)C[C@@]12C [deflazacort]
increase in precursor cell proliferation and formation of new muscle fibers (muscle precursor cells): 1.5–2 fold | CNI (central nucleation index) in DIA (dystrophic muscle): significantly lower CNI after deflazacort | CNI (central nucleation index) in LTA (dystrophic muscle): 0.4

N=C(N)NCCC[C@H](N)C(=O)O [L-Arg, L-arginine]
RSOL cell counts (satellite cells [1]): unchanged | RTA cell yield time course (satellite cells [1]): rose sharply at 5 min., and also stayed high | muscle weight profile (RTA relative to LTA; muscle weight as proportion of body weight) [2]: little or no change in muscle weight profile | concentration showing maximal activation (satellite cells [3]; L-Arginine 50–1000 nM, initial results): 500 nM | satellite cell activation (marked by DNA synthesis) (satellite cells [3]; single normal fibers, L-arginine at various concentrations, 48 hr): stimulates activation in a dose-dependent manner | satellite cell migration away from fibers (satellite cells [3]; single normal fibers, L-arginine, 48 hr): stimulates satellite cell migration away from fibers
